A word on the LD50: it is the dose at which mortality reaches 50%. A word on the pKa: it is the negative logarithm of the acid dissociation constant. High values mean a group that holds its proton tightly, low ones a group that gives up its proton readily. By zone of inhibition is commonly meant the extent of the growth-free halo in a diffusion test.

The record followed here is patent publication US3988316A, “Antibiotics sisomicin and verdamicin I and complex containing same” (Schering Corporation, priority 1975, dated 1976).

Where a name gives a salt, the structure may show the parent alone.

One data set has as its system Escherichia coli 10536. The experiment in a line: Protective Activity in Mice. Format: in vivo. The conditions noted are these: S.C., single dose one hour after intraperitoneal infection. The method, then: (§1) Verdamicin I was tested against four (4) species of infectious bacteria in mice and was administered as a single subcutaneous dose one (1) hour after infection via intraperitoneal injection of a lethal quantity of pathogen.
(§2) Results obtained with gentamicin are set for comparison.

The subject of data set [1] is Staphylococcus aureus Gray. The experiment in a line: Protective Activity in Mice. Format: in vivo. The conditions noted are these: S.C., single dose one hour after intraperitoneal infection. As to the method: as §1, §2
In data set [2] the test system is Pseudomonas aeruginosa 8689. The data set is described as follows: Protective Activity in Mice. Format: in vivo. Conditions: S.C., single dose one hour after intraperitoneal infection. As to the method: as §1, §2
The test system of another data set is Streptococcus pyogenes C. The experiment in a line: Protective Activity in Mice. In kind it is in vivo. The conditions noted are these: S.C., single dose one hour after intraperitoneal infection. As to the method: as §1, §2
Data set [3] deals with Staphylococcus aureus ATCC 6538P. The data set is described as follows: Disc plate microbiological assay.
From the text: Th microbiological assay of the antibiotic substances is a disc plate assay using Staphylococcus aureus ATCC 6538P as test organism.
The next data set can be described thus: in vivo. The conditions noted are these: mouse, iv.
A short description of data set [4]: pKa (Chemical and Physical Properties of Verdamicin I). In kind it is physicochemical. The conditions noted are these: base. From the text:
In table VI below are set forth physical properties of […] as the hydrated free nitrogen base and as the sulfuric acid addition salt (sulfate).

In data set [5] the test system is gram positive and gram-negative bacteria. The data set is described as follows: In vitro antibacterial activity, Verdamicin I (in words). In kind it is cell-based.
Data set [6] deals with gram-positive and gram-negative organisms. The experiment in a line: In vivo antibacterial activity in mice (in words). As to the method:
as §1, §2

Consider gentamicin [reference compound], for which the PD50 stood at 1.7 mg/kg in the data set on Escherichia coli 10536, 2.4 mg/kg in data set [1], 1.7 mg/kg in data set [2] and 5.0 mg/kg with Streptococcus pyogenes C.
For the molecule `CN[C@@H]1[C@@H](O)[C@@H](O[C@@H]2[C@@H](O)[C@H](O[C@H]3OC(C(C)N)=CC[C@H]3N)[C@@H](N)C[C@H]2N)OC[C@]1(C)O` (stereo partly drawn) [Verdamicin I Sulfate], in data set [3] (own base as comparison standard), the “potency against its own base as the comparison standard” value came out at 695 meg/mg.
Turning to `CN[C@@H]1[C@@H](O)[C@@H](O[C@@H]2[C@@H](O)[C@H](O[C@H]3OC(C(C)N)=CC[C@H]3N)[C@@H](N)C[C@H]2N)OC[C@]1(C)O` (stereo partly drawn) [Verdamicin I], the ED50 in the data set with Escherichia coli 10536 (Escherichia coli, 10536, sc, 1 h, read-out: PD50) turned out to be 1.5 mg/kg; in data set [1] (Staphylococcus aureus, sc, 1 h, read-out: PD50) it was 2.5 mg/kg; in [2] (Pseudomonas aeruginosa, 8689, sc, 1 h, read-out: PD50) it was 2 mg/kg; in the data set on Streptococcus pyogenes C (Streptococcus pyogenes, sc, 1 h, read-out: PD50), 1 mg/kg. In addition, the LD50 in “in vivo” was 75 mg/kg. This molecule displayed a pKa in [4] of 8.1. Further, in [5], the “antibacterial activity in vitro” value is “broad spectrum of antibacterial activity”. The “in vivo antibacterial activity” value in [6] is listed as “potent antibacterial agent”. In addition, in data set [3] (gentamicin assay), the dose response curve result was “parallel to that of gentamicin”. In data set [3] (one meg. of standard), the zone of inhibition turned out to be 17.0 ± 1.3 mm.
